In one assay the test system is Venturia inaequalis. The experiment in a line: In vivo preventive test on Venturia inaequalis (apples). Conditions: 100 ppm, evaluated 10 days after inoculation. As to the method:
(§1) To produce a suitable preparation of active compound, 1 part by weight of active compound is mixed with the stated amounts of solvent and emulsifier, and the concentrate is diluted with water to the desired concentration.
To test for preventive activity, young plants are sprayed with the preparation of active compound at the stated rate of application. After the spray coating has dried on, the plants are inoculated with an aqueous conidia suspension of the causal agent of apple scab (Venturia inaequalis) and then remain for 1 day in an incubation cabinet at approximately 20° C. and a relative atmospheric humidity of 100%.
The plants are then placed in a greenhouse at approximately 21° C. and a relative atmospheric humidity of approximately 90%.
The test is evaluated 10 days after the inoculation. 0% means an efficacy which corresponds to that of the untreated control, while an efficacy of 100% means that no disease is observed.
Under these conditions, excellent (at least 95%) protection is observed at a dose of 100 ppm of active ingredient with the following compound from table D: […]

Another assay has as its system Leptosphaeria nodorum. Briefly: In vivo preventive test on Leptosphaeria nodorum (wheat). Conditions: 100 ppm, evaluated 7-9 days after inoculation. How it is done: Solvent: 49 parts by weight of N,N-dimethylacetamide
Emulsifier: 1 part by weight of alkylarylpolyglycol ether
To produce a suitable preparation of active compound, 1 part by weight of active compound or active compound combination is mixed with the stated amounts of solvent and emulsifier, and the concentrate is diluted with water to the desired concentration.
To test for preventive activity, young plants are sprayed with the preparation of active compound or active compound combination at the stated rate of application.
After the spray coating has been dried, the plants are sprayed with a spore suspension of Leptosphaeria nodorum. The plants remain for 48 hours in an incubation cabinet at approximately 20° C. and a relative atmospheric humidity of approximately 100%.
The plants are placed in the greenhouse at a temperature of approximately 22° C. and a relative atmospheric humidity of approximately 80%.
The test is evaluated 7-9 days after the inoculation. 0% means an efficacy which corresponds to that of the untreated control, while an efficacy of 100% means that no disease is observed.
Under these conditions, excellent (at least 95%) protection is observed at a dose of 100 ppm of active ingredient with the following compound from table G: […]

A further assay deals with Alternaria solani. Briefly: In vivo preventive test on Alternaria solani (tomato). Conditions: 100 ppm, evaluated 3 days after inoculation. How it is done:
Solvent: 24.5 parts by weight of acetone
• 24.5 parts by weight of N,N-dimethylacetamide Emulsifier: 1 part by weight of alkylarylpolyglycol ether
as §1
To test for preventive activity, young plants are sprayed with the preparation of active compound at the stated rate of application. After the spray coating has dried on, the plants are inoculated with an aqueous spore suspension of Alternaria solani. The plants are then placed in an incubation cabinet at approximately 20° C. and a relative atmospheric humidity of 100%.
The test is evaluated 3 days after the inoculation. 0% means an efficacy which corresponds to that of the untreated control while an efficacy of 100% means that no disease is observed.
Under these conditions, high (at least 90%) protection is observed at a dose of 100 ppm of active ingredient with the following compound from table B: […]

A further assay concerns Pyrenophora teres. The experiment in a line: In vivo preventive test on Pyrenophora teres (barley). Conditions: 500 ppm of active ingredient; barley plants, preventive spray; grading 14 days after contamination. In a few lines: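 Barley plants ('Plaisant', 1-leaf stage) were sprayed with compound in acetone/tween/DMSO/water, then inoculated 24 h later with P. teres spores (12 000 spores per mL). Plants were held 48 h at 20° C./100% RH, then 12 days at 70-80% RH. Efficacy (%) was graded 14 days after inoculation relative to solvent-treated controls.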

Another assay deals with Sphaerotheca fuliginea. The experiment in a line: In vivo preventive test on Sphaerotheca fuliginea (powdery mildew on cucurbits). Conditions: 500 ppm, gherkin plants, grading 12 days after contamination. How it is done:
The active ingredients tested are prepared by homogenization in a mixture of acetone/tween/DMSO and then diluted with water to obtain the desired active material concentration.
Gherkin plants (“Vert petit de Paris” variety), sown in starter cups on a 50/50 peat soil-pozzolana substrate and grown at 24° C., are treated at the Z11 cotyledon stage by spraying with the active ingredient prepared as described above. Plants, used as controls, are treated with the mixture of acetone/tween/DMSO/water not containing the active material.
After 24 hours, the plants are contaminated by spraying the cotyledons with an aqueous suspension of Sphaerotheca fuliginea spores (100 000 spores per mL). The spores are collected from infected plants. The contaminated gherkin plants are incubated at about 20° C. and at 70-80% relative humidity.
Grading (% of efficacy) is carried out 12 days after the contamination, in comparison with the control plants.
Under these conditions, good (at least 70%) to total protection is observed at a dose of 500 ppm of active ingredient with the following compounds from table A: […]

The test system of another assay is Puccinia recondita. The experiment in a line: In vivo preventive test on Puccinia recondita (brown rust on wheat). Conditions: 500 ppm of active ingredient; wheat plants, preventive spray; grading 12 days after contamination. In a few lines:
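Wheat ("Scipion") at the 1-leaf stage was sprayed with compound in acetone/tween/DMSO/water, then inoculated 24 h later with Puccinia recondita spores (100 000 spores per mL). Plants were held 24 h at 20° C and 100% RH, then 10 days at 20° C and 70-80% RH. Efficacy (%) was graded 12 days post-inoculation against solvent-treated controls.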

Take `Cc1nn(C)c(F)c1C(=O)N(C1CC1)C(C)c1ccccc1C1=CCCC1` (racemic) [I.1]: the Efficacy with Venturia inaequalis was found to be 98%; in the assay on Leptosphaeria nodorum, 95%; in the assay with Alternaria solani, 94%; in the assay with Pyrenophora teres, 97%; with Sphaerotheca fuliginea it was 100%; with Puccinia recondita, 81%.

The values above are taken from patent US9540314B2, “N-cycloalkyl-N-[(cycloalkenylphenyl)methylene]-(thio) carboxamide derivatives” (BAYER INTELLECTUAL PROPERTY GMBH, priority 2012, dated 2017).
